Reference: PubChem BioAssay AID192 (DTP/NCI, 2004)
Toxic doses and inconclusive results are not listed. How the source made its calls: active means survival T/C of 150% or more; inactive means T/C below 125% in these data. Numbered stars: 1 amine (or outer) side, 2 acyl side, 3 side chain; on linkers, the order of the positions; unused ones are H or OH. Bridge positions count the residues as written; N and C are the ends. Square brackets hold non-standard residues; d marks the D form. Peptide text beside a SMILES is read from it. I, II: the chains in the order shown. Actinocin(1to9) = Cc1c2oc3c(C)ccc(C(=O)[*:2])c3nc-2c(C(=O)[*:1])c(N)c1=O; NMeV = CN[CH](C(=O)O)C(C)C; Sar = CNCC(=O)O

System: BDF1 mice, B16 melanoma ip, median survival T/C
Experiment: NCI In Vivo Anticancer Drug Screen. Data for tumor model B16 Melanoma (intraperitoneal) in B6D2F1 (BDF1) mice
Conditions: endpoint: median survival time, higher = longer survival
Method in brief: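 The ratio T/C compares compound-treated mice with vehicle-treated controls, using survival or tumor size as the endpoint in a transplantable tumor model.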

[1] = dose: 12.5 mg/kg/injection, schedule: Q01DX009 (ip), vehicle: saline with Tween-80
[2] = dose: 25.0 mg/kg/injection, schedule: Q01DX009 (ip), vehicle: saline with Tween-80
[3] = dose: 100.0 mg/kg/injection, schedule: Q01DX009 (ip), vehicle: saline with Tween-80
[4] = dose: 400.0 mg/kg/injection, schedule: Q01DX009 (ip), vehicle: saline with Tween-80
[5] = dose: 12.5 mg/kg/injection, schedule: Q01DX009 (ip), vehicle: saline
[6] = dose: 25.0 mg/kg/injection, schedule: Q01DX009 (ip), vehicle: saline
[7] = dose: 100.0 mg/kg/injection, schedule: Q04DX003 (ip), vehicle: Klucel (hydroxypropylcellulose) (HPC)
[8] = dose: 200.0 mg/kg/injection, schedule: Q04DX003 (ip), vehicle: Klucel (hydroxypropylcellulose) (HPC)
[9] = dose: 200.0 mg/kg/injection, schedule: Q01DX009 (ip), vehicle: saline with Tween-80
[10] = dose: 50.0 mg/kg/injection, schedule: Q01DX009 (ip), vehicle: saline with Tween-80
[11] = dose: 50.0 mg/kg/injection, schedule: Q01DX009 (ip), vehicle: Klucel (hydroxypropylcellulose) (HPC)
[12] = dose: 100.0 mg/kg/injection, schedule: Q01DX009 (ip), vehicle: Klucel (hydroxypropylcellulose) (HPC)

Measured: T/C

CC(=O)Nc1ccc(CCCCc2cccc(C(=N)N)c2)cc1
inactive: dose: 2.3 mg/kg/injection, schedule: Q04DX003 (ip), vehicle: saline with Tween-80 86 % of control | dose: 4.6 mg/kg/injection, schedule: Q04DX003 (ip), vehicle: saline with Tween-80 86 % of control | dose: 9.3 mg/kg/injection, schedule: Q04DX003 (ip), vehicle: saline with Tween-80 95 % of control | [1] 97 % of control | dose: 18.75 mg/kg/injection, schedule: Q04DX003 (ip), vehicle: saline with Tween-80 116 % of control | [2] 97 % of control

CC(=O)NC1c2cc(Cl)ccc2-c2c(Cl)cc(Cl)cc21 (configuration not stated)
inactive: [3] 100 % of control | [4] 95 % of control | dose: 800.0 mg/kg/injection, schedule: Q01DX009 (ip), vehicle: saline with Tween-80 86 % of control

O=C(C1CO1)C(Cl)(Cl)Cl (configuration not stated)
inactive: [5] 105 % of control | [6] 110 % of control

CN(C)CCC(=O)c1ccccc1
inactive: dose: 6.25 mg/kg/injection, schedule: Q01DX009 (ip), vehicle: saline 105 % of control | [5] 105 % of control

CCCCCCCCCC(O)CCCCC (configuration not stated)
inactive: dose: 75.0 mg/kg/injection, schedule: Q04DX003 (ip), vehicle: saline with Tween-80 102 % of control | dose: 150.0 mg/kg/injection, schedule: Q04DX003 (ip), vehicle: saline with Tween-80 94 % of control | dose: 300.0 mg/kg/injection, schedule: Q04DX003 (ip), vehicle: saline with Tween-80 100 % of control

C1CC[N-]CC1.C1CC[N-]CC1.C1CC[N-]CC1.C1CC[N-]CC1.N#C[S-].N#C[S-].[Ni]
inactive: dose: 5.0 mg/kg/injection, schedule: Q01DX009 (ip), vehicle: saline with Tween-80 92 % of control | dose: 10.0 mg/kg/injection, schedule: Q01DX009 (ip), vehicle: saline with Tween-80 104 % of control

O=C(/C=C(\C(=O)c1ccccc1)c1ccccc1)c1ccccc1
inactive: [7] 100 % of control | [8] 100 % of control | dose: 400.0 mg/kg/injection, schedule: Q04DX003 (ip), vehicle: Klucel (hydroxypropylcellulose) (HPC) 103 % of control

CCC1(CC)CCC(Br)C(Br)C1 (configuration not stated)
inactive: [3] 95 % of control | [9] 105 % of control | [4] 102 % of control

Cc1cccc(NC(=O)c2ccccc2)c1C
inactive: [2] 99 % of control | [10] 99 % of control | [3] 93 % of control

Cc1ccc(N=CN(C)Sc2ccc(C(C)(C)C)cc2)c(C)c1
inactive: dose: 25.0 mg/kg/injection, schedule: Q01DX009 (ip), vehicle: Klucel (hydroxypropylcellulose) (HPC) 100 % of control | [11] 98 % of control | [12] 95 % of control | dose: 200.0 mg/kg/injection, schedule: Q01DX009 (ip), vehicle: Klucel (hydroxypropylcellulose) (HPC) 94 % of control

CCC(C)C1NC(=O)C(NC(=O)c2c3nc4c(C(=O)NC5C(=O)NC(C(C)C)C(=O)N6CCCC6C(=O)N(C)CC(=O)N(C)C(C(C)C)C(=O)OC5C)ccc(C)c4oc-3c(C)c(=O)c2N)C(C)OC(=O)C(C(C)C)N(C)C(=O)CN(C)C(=O)C2CCCN2C1=O (configuration not stated) (I: TIP[Sar][NMeV] / II: TVP[Sar][NMeV]; ester I:1-I:C, II:1-II:C; linker I:N-II:N via Actinocin(1to9); configuration not given here)
inactive: dose: 0.2 mg/kg/injection, schedule: Q01DX001 (ip), vehicle: water 116 % of control | dose: 12.5 micrograms/kg/injection, schedule: Q01DX009 (ip), vehicle: water 117 % of control | dose: 25.0 micrograms/kg/injection, schedule: Q01DX009 (ip), vehicle: water 116 % of control | dose: 75.0 micrograms/kg/injection, schedule: Q04DX003 (ip), vehicle: water 119 % of control

O=C1C(=C(C(F)(F)F)C(F)(F)F)CCc2ccccc21
inactive: dose: 50.0 mg/kg/injection, schedule: Q04DX003 (ip), vehicle: Klucel (hydroxypropylcellulose) (HPC) 95 % of control | [7] 95 % of control | [8] 100 % of control

C=CC(=O)NCNC(=O)C=C
inactive: [1] 104 % of control | [5] 110 % of control | [2] 99 % of control | [6] 102 % of control | [10] 103 % of control | dose: 50.0 mg/kg/injection, schedule: Q01DX009 (ip), vehicle: saline 109 % of control | [3] 107 % of control | dose: 100.0 mg/kg/injection, schedule: Q01DX009 (ip), vehicle: saline 102 % of control

C=C1C(=O)OC2CC3(C)CC(O)C(O)C(=C)C3CC12 (configuration not stated)
inactive: [11] 104 % of control | [12] 101 % of control

Cc1cc(-c2ccc(N=Nc3ccc4c(S(=O)(=O)O)cc(S(=O)(=O)O)c(N)c4c3O)c(C)c2)ccc1N=Nc1ccc2c(S(=O)(=O)O)cc(S(=O)(=O)O)c(N)c2c1O
inactive: [5] 121 % of control

CC(CCl)C(C#N)(c1ccccc1)c1ccccc1 (configuration not stated)
inactive: [10] 93 % of control | [3] 90 % of control | [9] 102 % of control
